Active and inactive are the calls of the source.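 How the source made its calls: active means at least 15% of live cells showing both differentiation markers at top dose, and half-maximal dose below 10 µM; inactive means the rest.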
How the values were obtained:
[1] = GFP+/MAC1+ double-positive induction in arrested progenitors – HOXA9ER cells, flow cytometry, Powder Set01 subset01, dose response (AID 652121); conditions: ER-HoxA9 myeloid progenitors, GFP+/MAC1+ differentiation flow cytometry; at 10 µM (top of the series)
[2] = test system: ER-HoxA9 myeloid progenitors, GFP+/MAC1+ differentiation flow cytometry; experiment: as above

## O=C(O)c1cccnc1Nc1ccc(Cl)cc1
[1]
  percent double positive differentiation: 28.8% (inactive)

## Cc1ccc(Nc2nc(=O)c3cccnc3s2)c(Br)c1
[2]
  EC50: 1830 nM

## O=C(CCNC(=O)c1ccc(Cl)cc1)NC1CCCc2ccccc21 (stereo not drawn)
[1]
  percent double positive differentiation: 44% (inactive)

Source: PubChem BioAssay AID652121 (NMMLSC, 2013)
